Laboratory results taken from PMC5547389, “Structure-activity relationships and molecular docking studies of chromene and chromene based azo chromophores: A novel series of potent antimicrobial and anticancer agents” (EXCLI Journal, 2017).
Converted amounts (≈) assume the structure as drawn.

Assays:
[1] = tested on: Syncephalastrum racemosum (RCMB 05922); experiment: MIC by serial dilution method; format: cell-based; details: RCMB05922, fungi, read-out: Minimum inhibitory concentration, MIC, S.R
Protocol: (§1) All the newly synthesized compounds described in this report were screened for both antibacterial and antifungal activity via the reported agar diffusion well method (Vanden Berghe and Vlietinck, 1991[62]). The inhibition zones and minimum inhibitory concentrations (MIC) were determined by the serial dilution method (Cappuccino and Sherman, 1999[12]). The antimicrobial activity of the synthesized compounds was tested against a broad panel of microorganisms including two Gram-positive bacteria: Streptococcus pneumoniae (RCMB 010010) and Bacillus subtilis (RCMB 010067), two Gram-negative bacteria: Pseudomonas aeruginosa (RCMB 010043) and Escherichia coli (RCMB 010052), and four fungi: Aspergillus fumigatus (RCMB 02568), Syncephalastrum racemosum (RCMB 05922), Geotricum candidum (RCMB 05097), and Candida albicans (RCMB 05036). Ampicillin, ciprofloxacin, gentamicin and amphotericin B were used as positive control drugs (Atta-ur-Rahman and Thomsen, 2001[7]; Smania et al., 1999[57]). […] While in the case of Gm-ve bacteria, they had weak activity. In addition, certain strains of fungi were sensitive to tested compounds with an IZ range from 12-25 except Candida albicans.

[2] = tested on: Pseudomonas aeruginosa (RCMB 010043); experiment: MIC by serial dilution method; format: cell-based; details: RCMB010043, Gm-ve, read-out: Minimum inhibitory concentration, MIC, P.A
Protocol: as §1

[3] = tested on: Aspergillus fumigatus (RCMB 02568); experiment: MIC by serial dilution method; format: cell-based; details: RCMB02568, fungi, read-out: Minimum inhibitory concentration, MIC, A.F
Protocol: as §1

[4] = tested on: Escherichia coli (RCMB 010052); experiment: MIC by serial dilution method; format: cell-based; details: RCMB010052, Gm-ve, read-out: Minimum inhibitory concentration, MIC, E.C
Protocol: as §1

[5] = tested on: Bacillus subtilis (RCMB 010067); experiment: MIC by serial dilution method; format: cell-based; details: RCMB010067, Gm+ve, read-out: Minimum inhibitory concentration, MIC, B.S
Protocol: as §1

[6] = tested on: Geotricum candidum (RCMB 05097); experiment: MIC by serial dilution method; format: cell-based; details: fungi; read-out: Minimum inhibitory concentration, MIC, G.C
Protocol: as §1

[7] = tested on: Streptococcus pneumoniae (RCMB 010010); experiment: MIC by serial dilution method; format: cell-based; details: RCMB010010, Gm+ve, read-out: Minimum inhibitory concentration, MIC, S.P
Protocol: as §1

[8] = tested on: human breast adenocarcinoma (MCF-7); experiment: Cytotoxic screening; format: cell-based; details: Homo sapiens, MCF7; read-out: IC50 MCF-7
Protocol: (§2) Human colon carcinoma (HCT-116), human hepatocellular carcinoma (HEPG-2), adenocarcinomic human alveolar basal epithelial cell (A-549), and human breast adenocarcinoma (MCF-7) cell lines were obtained from the American Type Culture Collection (ATCC, Rockville, MD). The cells were grown on RPMI-1640 medium supplemented with 10 % inactivated fetal calf serum and 50 µg/ml gentamycin. The cells were maintained at 37 °C in a humidified atmosphere with 5 % CO2 and were subcultured two to three times a week. Potential cytotoxicity of the compounds was evaluated on tumor cells using the method of Gangadevi and Muthumary (2007[21]) (Klancnik et al., 2010[36]). The cells were grown as monolayers in growth RPMI-1640. The monolayers of 104 cells adhered at the bottom of the wells in a 96-well microtiter plate incubated for 24 h at 37 °C in a humidified incubator with 5 % CO2. The monolayers were then washed with sterile phosphate buffered saline (0.01 M pH 7.2) and simultaneously the cells were treated with 100 µL from different dilutions of tested sample in fresh maintenance medium and incubated at 37 °C. A control of untreated cells was made in the absence of tested sample. Positive controls containing doxorubicin were also tested as a reference drug for comparison. Six wells were used for each concentration of the test sample. Every 24 hours an observation under the inverted microscope was made. The number of the surviving cells was determined by staining the cells with crystal violet (Mosmann, 1983[42]; Gangadevi and Muthumary, 2007[21]) followed by cell lysing using 33 % glacial acetic acid and reading the absorbance at 590 nm using microplate reader (SunRise, TECAN, Inc, USA) after well mixing. The absorbance values from untreated cells were considered as 100 % proliferation. The number of viable cells was determined using microplate reader as previously mentioned before and the percentage of […] was calculated as [1-(ODt/ODc)] x 100 % where ODt is the mean optical density of wells treated with the tested sample and ODc is the mean optical density of untreated cells. The relation between surviving cells and drug concentration was plotted to get the survival curve of each tumor cell line after treatment with the specified compound. The 50 % inhibitory concentration (IC50), the concentration required to cause toxic effects in 50 % of intact cells, was estimated from graphic plots.
(§3) The in vitro cytotoxic activity was performed by MTT assay (Mosmann, 1983[42]; Alley et al., 1988[6]) against three human carcinoma cell lines: Human colon carcinoma (HCT-116), human breast adenocarcinoma (MCF-7), and human hepatocellular carcinoma (HEPG-2).

[9] = tested on: human hepatocellular carcinoma (HEPG-2); experiment: Cytotoxic screening; format: cell-based; details: HepG2, read-out: IC50 HepG-2
Protocol: as §2, §3

[10] = tested on: Human colon carcinoma (HCT-116); experiment: Cytotoxic screening; format: cell-based; details: Homo sapiens, HCT-116; read-out: IC50 HCT-116
Protocol: as §2, §3

[11] = tested on: Syncephalastrum racemosum (RCMB 05922); experiment: Well diffusion assay (inhibition zone); format: cell-based; details: RCMB05922, 5 mg/mL in DMSO, fungi, read-out: Inhibition Zone (IZ) diameter, S.R
Protocol: (§4) The microorganism inoculums were uniformly spread using sterile cotton swabs on a sterile Petri dish malt extract agar (for fungi) and nutrient agar (for bacteria). One hundred cubic millimeters of each sample was added to each well (10 mm-diameter holes were cut in the agar gel, 20 mm apart from one another). The systems were incubated for 24-48 h at 37 °C (for bacteria) and at 28 °C (for fungi). After incubation, the microorganism growth was observed. Inhibition zones of the bacterial and fungal growth were measured in millimeters. Tests were performed in triplicate (Cappuccino and Sherman, 1999[12]; Vanden Berghe and Vlientinck, 1991[62]).
as §1

[12] = tested on: Pseudomonas aeruginosa (RCMB 010043); experiment: Well diffusion assay (inhibition zone); format: cell-based; details: RCMB010043, 5 mg/mL in DMSO, Gm-ve, read-out: Inhibition Zone (IZ) diameter, P.A
Protocol: as §4, §1

[13] = tested on: Aspergillus fumigatus (RCMB 02568); experiment: Well diffusion assay (inhibition zone); format: cell-based; details: RCMB02568, 5 mg/mL in DMSO, fungi, read-out: Inhibition Zone (IZ) diameter, A.F
Protocol: as §4, §1

[14] = tested on: Escherichia coli (RCMB 010052); experiment: Well diffusion assay (inhibition zone); format: cell-based; details: RCMB010052, 5 mg/mL in DMSO, Gm-ve, read-out: Inhibition Zone (IZ) diameter, E.C
Protocol: as §4, §1

[15] = tested on: Bacillus subtilis (RCMB 010067); experiment: Well diffusion assay (inhibition zone); format: cell-based; details: RCMB010067, 5 mg/mL in DMSO, Gm+ve, read-out: Inhibition Zone (IZ) diameter, B.S
Protocol: as §4, §1

[16] = tested on: Geotricum candidum (RCMB 05097); experiment: Well diffusion assay (inhibition zone); format: cell-based; details: 5 mg/mL in DMSO; fungi; read-out: Inhibition Zone (IZ) diameter, G.C
Protocol: as §4, §1

[17] = tested on: Streptococcus pneumoniae (RCMB 010010); experiment: Well diffusion assay (inhibition zone); format: cell-based; details: RCMB010010, 5 mg/mL in DMSO, Gm+ve, read-out: Inhibition Zone (IZ) diameter, S.P
Protocol: as §4, §1

Compound | melting point | MIC [1] | MIC [2] | MIC [3] | MIC [4] | MIC [5] | MIC [6] | MIC [7] | IC50 [8] | IC50 [9] | IC50 [10] | zone of inhibition at 5000 µg/mL [11] | zone of inhibition at 5000 µg/mL [12] | zone of inhibition at 5000 µg/mL [13] | zone of inhibition at 5000 µg/mL [14] | zone of inhibition at 5000 µg/mL [15] | zone of inhibition at 5000 µg/mL [16] | zone of inhibition at 5000 µg/mL [17]
N#CC1=C(N)Oc2cc(O)c(N=Nc3ccc(C(=O)O)cc3)cc2C1c1ccccc1F (stereo not drawn) [13e, 4-[2-Amino-3-cyano-4-(2-fluoro-phenyl)-7-hydroxy-4H-chromen-6-ylazo]-benzoic acid] | 243 °C | 3.9 µg/mL (≈ 9.06 µM) | 3.9 µg/mL (≈ 9.06 µM) | 0.98 µg/mL (≈ 2.28 µM) | 3.9 µg/mL (≈ 9.06 µM) | 0.06 µg/mL (≈ 0.139 µM) | 0.49 µg/mL (≈ 1.14 µM) | 0.12 µg/mL (≈ 0.279 µM) | 27.9 µg/mL (≈ 64.8 µM) | 20.5 µg/mL (≈ 47.6 µM) | 46.7 µg/mL (≈ 109 µM) | 19.3 mm | 19.3 mm | 21.3 mm | 19.3 mm | 25.2 mm | 21.8 mm | 23.6 mm
CC1(C)S[C@@H]2[C@H](NC(=O)[C@H](N)c3ccccc3)C(=O)N2[C@H]1C(=O)O [Ampicillin, reference compound] | – | – | – | – | – | 0.007 µg/mL (≈ 0.02 µM) | – | 0.24 µg/mL (≈ 0.687 µM) | – | – | – | – | – | – | – | 32.4 mm | – | 23.8 mm
N#CC1=C(N)Oc2cc(O)c(N=Nc3ccc(O)cc3)cc2C1c1ccccc1F (stereo not drawn) [13j, 2-Amino-4-(2-fluoro-phenyl)-7-hydroxy-6-(4-hydroxy-phenylazo)-4H-chromene-3-carbonitrile] | 260 °C | 3.9 µg/mL (≈ 9.69 µM) | 31.2 µg/mL (≈ 77.7 µM) | 0.98 µg/mL (≈ 2.44 µM) | 3.9 µg/mL (≈ 9.69 µM) | 0.49 µg/mL (≈ 1.22 µM) | 0.98 µg/mL (≈ 2.44 µM) | 0.98 µg/mL (≈ 2.44 µM) | 44 µg/mL (≈ 109 µM) | 47.2 µg/mL (≈ 117 µM) | 49.1 µg/mL (≈ 122 µM) | 18.7 mm | 16.3 mm | 20.6 mm | 19.8 mm | 21.9 mm | 21.2 mm | 21 mm
CC(C)(C)c1ccc(C2C(C#N)=C(N)Oc3cc(O)c(N=Nc4ccc(O)cc4)cc32)cc1 (stereo not drawn) [13i, 2-Amino-4-(4-tert-butyl-phenyl)-7-hydroxy-6-(4-hydroxy-phenylazo)-4H-chromene-3-carbonitrile] | 255 °C | 15.6 µg/mL (≈ 35.5 µM) | 15.6 µg/mL (≈ 35.5 µM) | 3.9 µg/mL (≈ 8.85 µM) | 3.9 µg/mL (≈ 8.85 µM) | 0.12 µg/mL (≈ 0.272 µM) | 0.98 µg/mL (≈ 2.22 µM) | 0.24 µg/mL (≈ 0.545 µM) | 47 µg/mL (≈ 107 µM) | 31.6 µg/mL (≈ 71.7 µM) | 75.7 µg/mL (≈ 172 µM) | 19.2 mm | 16.2 mm | 17.3 mm | 17.2 mm | 22.4 mm | 20.3 mm | 21.3 mm
CNC(C)C1CCC(N)C(OC2C(N)CC(N)C(OC3OCC(C)(O)C(NC)C3O)C2O)O1 (stereo not drawn) [Gentamicin, reference compound] | – | – | 31.2 µg/mL (≈ 65.4 µM) | – | 3.9 µg/mL (≈ 8.17 µM) | – | – | – | – | – | – | – | 17.3 mm | – | 19.9 mm | – | – | –
N#CC1=C(N)Oc2cc(O)c(N=Nc3cccc(O)c3)cc2C1c1ccccc1F (stereo not drawn) [13k, 2-Amino-4-(2-fluoro-phenyl)-7-hydroxy-6-(3-hydroxy-phenylazo)-4H-chromene-3-carbonitrile] | 280 °C | 3.9 µg/mL (≈ 9.69 µM) | 31.2 µg/mL (≈ 77.7 µM) | 15.6 µg/mL (≈ 38.8 µM) | 15.6 µg/mL (≈ 38.8 µM) | 0.49 µg/mL (≈ 1.22 µM) | 1.95 µg/mL (≈ 4.85 µM) | 0.98 µg/mL (≈ 2.44 µM) | 44.1 µg/mL (≈ 110 µM) | 41.8 µg/mL (≈ 104 µM) | 71.4 µg/mL (≈ 177 µM) | 17.1 mm | 17.1 mm | 19.4 mm | 18.6 mm | 24.3 mm | 21.3 mm | 22.6 mm
O=[N+]([O-])c1ccc(N=Nc2ccc(O)cc2O)cc1 [12c, 4-(4-Nitro-phenylazo)-benzene-1,3-diol] | – | 125 µg/mL (≈ 482 µM) | – | 62.5 µg/mL (≈ 241 µM) | 125 µg/mL (≈ 482 µM) | 7.81 µg/mL (≈ 30.1 µM) | 15.6 µg/mL (≈ 60.3 µM) | 31.2 µg/mL (≈ 121 µM) | 24 µg/mL (≈ 92.6 µM) | 21.2 µg/mL (≈ 81.8 µM) | 30.2 µg/mL (≈ 117 µM) | 14.2 mm | – | 16.4 mm | 13.5 mm | 18.6 mm | 17.9 mm | 17.2 mm
O=C(O)c1cn(C2CC2)c2cc(N3CCNCC3)c(F)cc2c1=O [Ciprofloxacin, reference compound] | – | – | 0.99 µg/mL (≈ 2.99 µM) | – | 0.49 µg/mL (≈ 1.48 µM) | – | – | – | – | – | – | – | 22.3 mm | – | 25.3 mm | – | – | –
COc1ccc(C2C(C#N)=C(N)Oc3c(N)cc4ccccc4c32)cc1 (stereo not drawn) [4d, 3,5-diamino-1-(4-methoxy-phenyl)-1H-benzo[f]chromene-2-carbonitrile] | 183 °C | 62.5 µg/mL (≈ 182 µM) | 125 µg/mL (≈ 364 µM) | 0.98 µg/mL (≈ 2.85 µM) | 15.6 µg/mL (≈ 45.5 µM) | 0.007 µg/mL (≈ 0.0204 µM) | 0.06 µg/mL (≈ 0.175 µM) | 7.81 µg/mL (≈ 22.7 µM) | 4.68 µg/mL (≈ 13.6 µM) | 2.64 µg/mL (≈ 7.69 µM) | 4.79 µg/mL (≈ 13.9 µM) | 16.5 mm | 12.3 mm | 22.3 mm | 17.6 mm | 29.8 mm | 25.8 mm | 19.5 mm
